Data as given in US20110275559A1, “Long-Acting Y2 and/or Y4 Receptor Agonists” (Novo Nordisk A/S, priority 2008, published 2011).
Where two headings read alike, the source gives them in different places. *1 amine or outer side, *2 acyl side, *3 side chain or, on linkers, in order; H or OH if unused. Where a SMILES comes first, the peptide text is derived from it. Side-chain parts run from the residue outwards. The star is where a group is joined. C20 diacid = O=C(O)CCCCCCCCCCCCCCCCCCC(=O)*; γGlu = O=C(O)[C@H](CCC(=O)[*:2])N[*:1]; Trx = NC[C@H]1CC[C@H](C(=O)O)CC1; AEEA = NCCOCCOCC(=O)O

How the values were obtained:
Y4 receptor = biological target: T1, Y4 receptor (Homo sapiens, UniProt P50391); experiment: Y4 receptor ACTOne based FLIPR assay (cAMP biosensor); type: cell-based
T1 construct: host or cells: ACTOne HEK-293 cells
T1 sequence (P50391 whole entry): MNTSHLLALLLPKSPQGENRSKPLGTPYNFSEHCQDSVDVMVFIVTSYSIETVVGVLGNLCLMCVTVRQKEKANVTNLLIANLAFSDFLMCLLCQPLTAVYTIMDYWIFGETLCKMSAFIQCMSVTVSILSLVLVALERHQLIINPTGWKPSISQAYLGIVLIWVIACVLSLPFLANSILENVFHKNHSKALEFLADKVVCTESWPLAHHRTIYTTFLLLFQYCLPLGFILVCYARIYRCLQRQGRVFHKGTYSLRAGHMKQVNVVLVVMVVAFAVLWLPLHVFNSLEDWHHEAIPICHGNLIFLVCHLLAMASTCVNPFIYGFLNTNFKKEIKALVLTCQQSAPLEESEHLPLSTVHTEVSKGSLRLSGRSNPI
From the text: ACTOne™ is an easily scaleable cAMP biosensor HTS platform for measurement of Gs and Gi coupled 7™ receptor signalling from BD Biosciences (San Jose, Calif.). The cells express a biosensor developed around a modified rat olfactory cyclic nucleotide gated (CNG) calcium channel—a fairly non-discriminatory ion channel that responds to cAMP and cGMP. The CNG has been engineered to be cAMP selective and thus function as a cAMP responsive biosensor that signals through calcium or membrane potential responsive dyes. Y2 or Y4 receptor expressing ACTOne HEK-293 cells are obtained from BD Biosciences. The cells are loaded with a calcium responsive dye that only distributes in the cytoplasm. Probenecid, an inhibitor of the organic anion transporter is added to prevent the dye from leaving the cell. A phosphodiesterase inhibitor is added to prevent formatted cAMP from being degraded. Isoproterenol (an β1/β2 agonist) is added to activate the adenylate cyclase. When an Y2 or Y4 receptor agonist is added, the adenylate cyclase is inactivated. The decreased calcium concentration in the cytoplasm is then detected as an increase in fluorescence. Together with the test substance, Isoproterenol at a concentration matching EC80, is added to all wells. • The cells are plated out in Greiner 384-well plates. […] The plates are covered with tinfoil to avoid light (the dye can be excited by the daylight, which results in higher baseline and variation). • The FLIPR (FLIPRtetra from Molecular Devices, CA, USA) adds 1 μl sample and 1 μl isoproterenol (0.05 μM final concentration) at the same time. • The fluorescence signal from the wells is measured 330 seconds after sample addition on the FLIPR.

[1] = Mini-pig PK assay (plasma half-life); settings: Göttingen, minipig
In short: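 Catheterised mini-pigs received compound i.v. at 10 nmol/kg in pH 4.0 phosphate/NaCl/tween vehicle, or alternatively i.v. or s.c. at 1–30 nmol/kg in pH 8.0 K2HPO4/tween. Stabilised plasma was sampled up to 13 days and assayed by LC-MS (LLOQ 2 nM). Half-life came from non-compartmental analysis of individual animal profiles.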

Y2 receptor = biological target: T2, Y2 receptor (Homo sapiens, UniProt P49146); experiment: Y2 receptor ACTOne based FLIPR assay (cAMP biosensor); type: cell-based
T2 construct: host or cells: ACTOne HEK-293 cells
T2 sequence (P49146 1-381): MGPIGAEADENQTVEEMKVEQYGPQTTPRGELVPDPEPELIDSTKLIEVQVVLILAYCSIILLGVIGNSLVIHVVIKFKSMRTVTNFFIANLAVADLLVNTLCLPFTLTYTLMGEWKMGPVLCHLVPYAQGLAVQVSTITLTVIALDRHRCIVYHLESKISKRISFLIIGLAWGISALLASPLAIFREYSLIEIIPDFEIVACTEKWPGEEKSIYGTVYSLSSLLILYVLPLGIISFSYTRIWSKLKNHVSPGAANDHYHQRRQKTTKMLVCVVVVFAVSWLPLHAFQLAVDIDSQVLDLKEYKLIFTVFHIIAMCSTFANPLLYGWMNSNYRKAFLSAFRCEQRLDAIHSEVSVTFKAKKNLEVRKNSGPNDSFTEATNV

[2] = Table 2, PP analogues, ACTOne HEK-293 cells, read-out: Y4 cAMP EC50
[3] = Table 2, PP analogues, ACTOne HEK-293 cells, read-out: Y2 cAMP EC50

Row | EC50 (Y4 receptor; [2]) | half-life ([1]; iv, 4 nmol/kg) | half-life ([1]; male, sc, 4 nmol/kg) | EC50 (Y2 receptor; [3]) | half-life ([1]; iv, 10 nmol/kg) | Compound | EC50 (Y4 receptor) | half-life ([1]; in vivo, iv, 7 nmol/kg) | half-life ([1]; male, in vivo, sc, 7 nmol/kg) | EC50 (Y2 receptor) | half-life ([1]; in vivo, iv, 4 nmol/kg)
1 | – | – | – | – | – | CC[C@H](C)[C@H](NC(=O)[C@H](Cc1ccc(O)cc1)NC(=O)[C@H](CCCNC(=N)N)NC(=O)[C@H](CCCNC(=N)N)NC(=O)[C@H](CC(C)C)NC(=O)[C@H](CC(=O)O)NC(=O)[C@H](C)NC(=O)[C@H](C)NC(=O)[C@H](Cc1ccc(O)cc1)NC(=O)[C@H](CCC(N)=O)NC(=O)[C@H](C)NC(=O)[C@H](CC(C)C)NC(=O)[C@H](CCC(N)=O)NC(=O)[C@H](CCC(=O)O)NC(=O)[C@@H]1CCCN1C(=O)[C@@H](NC(=O)[C@H](C)NC(=O)[C@H](CC(N)=O)NC(=O)[C@H](CC(=O)O)NC(=O)CNC(=O)[C@@H]1CCCN1C(=O)[C@H](Cc1ccc(O)cc1)NC(=O)[C@@H](NC(=O)[C@@H]1CCCN1C(=O)[C@H](CCC(=O)O)NC(=O)[C@H](CC(C)C)NC(=O)[C@@H]1CCCN1)C(C)C)[C@@H](C)O)C(=O)N[C@@H](CC(N)=O)C(=O)N[C@@H](CC(C)C)C(=O)N[C@@H](CC(C)C)C(=O)N[C@H](C(=O)N[C@@H](CCCCNC(=O)COCCOCCNC(=O)COCCOCCNC(=O)CC[C@H](NC(=O)[C@H]1CC[C@H](CNC(=O)CCCCCCCCCCCCCCCCCCC(=O)O)CC1)C(=O)O)C(=O)N1CCC[C@H]1C(=O)N[C@@H](CCCNC(=N)N)C(=O)N[C@@H](Cc1ccc(O)cc1)C(N)=O)[C@@H](C)O [SEQ ID NO: 42, N-epsilon33-[2-(2-{2-[2-(2-{2-[(S)-4-Carboxy-4-({trans-4-[(19-carboxynonadecanoylamino)methyl]cyclohexanecarbonyl}amino)butyrylamino]-ethoxy}ethoxy)acetylamino]ethoxy}ethoxy)acetyl][Leu17,Leu30,Lys33]hPP2-36] (H-PLEPVYPGDNATPEQLAQYAADLRRYINLLTK([AEEA-AEEA-γGlu-Trx-C20 diacid])PRY-NH2) | > 1000 nM | 116 h | 167 h | > 1000 nM | –
2 | > 890 nM | 74 h | 93 h | > 1000 nM | – | CC[C@H](C)[C@H](NC(=O)[C@H](Cc1ccc(O)cc1)NC(=O)[C@H](CCCNC(=N)N)NC(=O)[C@H](CCCNC(=N)N)NC(=O)[C@H](CC(C)C)NC(=O)[C@H](CC(=O)O)NC(=O)[C@H](C)NC(=O)[C@H](C)NC(=O)[C@H](Cc1ccc(O)cc1)NC(=O)[C@H](CCC(N)=O)NC(=O)[C@H](C)NC(=O)[C@H](CC(C)C)NC(=O)[C@H](CCC(N)=O)NC(=O)[C@H](CCC(=O)O)NC(=O)[C@@H]1CCCN1C(=O)[C@@H](NC(=O)[C@H](C)NC(=O)[C@H](CC(N)=O)NC(=O)[C@H](CC(=O)O)NC(=O)CNC(=O)[C@@H]1CCCN1C(=O)[C@H](Cc1ccc(O)cc1)NC(=O)[C@@H](NC(=O)[C@@H]1CCCN1C(=O)[C@H](CCC(=O)O)NC(=O)[C@H](CC(C)C)NC(=O)[C@@H]1CCCN1)C(C)C)[C@@H](C)O)C(=O)N[C@@H](CCCCNC(=O)COCCOCCNC(=O)COCCOCCNC(=O)CC[C@H](NC(=O)[C@H]1CC[C@H](CNC(=O)CCCCCCCCCCCCCCCCCCC(=O)O)CC1)C(=O)O)C(=O)N[C@@H](CC(C)C)C(=O)N[C@@H](CC(C)C)C(=O)N[C@H](C(=O)N[C@@H](CCCNC(=N)N)C(=O)N1CCC[C@H]1C(=O)N[C@@H](CCCNC(=N)N)C(=O)N[C@@H](Cc1ccc(O)cc1)C(N)=O)[C@@H](C)O [SEQ ID NO: 44, N-epsilon29-[2-(2-{2-[2-(2-{2-[(S)-4-Carboxy-4-({trans-4-[(19-carboxynonadecanoylamino)methyl]cyclohexanecarbonyl}amino)butyrylamino]-ethoxy}ethoxy)acetylamino]ethoxy}ethoxy)acetyl][Leu17,Lys29,Leu30]hPP2-36] (H-PLEPVYPGDNATPEQLAQYAADLRRYIK([AEEA-AEEA-γGlu-Trx-C20 diacid])LLTRPRY-NH2) | – | – | – | – | –
3 | – | – | – | – | – | CC[C@H](C)[C@H](NC(=O)[C@H](Cc1ccc(O)cc1)NC(=O)[C@H](CCCCNC(=O)COCCOCCNC(=O)COCCOCCNC(=O)CC[C@H](NC(=O)[C@H]1CC[C@H](CNC(=O)CCCCCCCCCCCCCCCCCCC(=O)O)CC1)C(=O)O)NC(=O)[C@H](CCCNC(=N)N)NC(=O)[C@H](CC(C)C)NC(=O)[C@H](CC(=O)O)NC(=O)[C@H](C)NC(=O)[C@H](C)NC(=O)[C@H](Cc1ccc(O)cc1)NC(=O)[C@H](CCC(N)=O)NC(=O)[C@H](C)NC(=O)[C@H](CC(C)C)NC(=O)[C@H](CCC(N)=O)NC(=O)[C@H](CCC(=O)O)NC(=O)[C@@H]1CCCN1C(=O)[C@@H](NC(=O)[C@H](C)NC(=O)[C@H](CC(N)=O)NC(=O)[C@H](CC(=O)O)NC(=O)CNC(=O)[C@@H]1CCCN1C(=O)[C@H](Cc1ccc(O)cc1)NC(=O)[C@@H](NC(=O)[C@@H]1CCCN1C(=O)[C@H](CCC(=O)O)NC(=O)[C@H](CC(C)C)NC(=O)[C@@H]1CCCN1)C(C)C)[C@@H](C)O)C(=O)N[C@@H](CC(N)=O)C(=O)N[C@@H](CC(C)C)C(=O)N[C@@H](CC(C)C)C(=O)N[C@H](C(=O)N[C@@H](CCCNC(=N)N)C(=O)N1CCC[C@H]1C(=O)N[C@@H](CCCNC(=N)N)C(=O)N[C@@H](Cc1ccc(O)cc1)C(N)=O)[C@@H](C)O [SEQ ID NO: 45, N-epsilon26-[2-(2-{2-[2-(2-{2-[(S)-4-Carboxy-4-({trans-4-[(19-carboxynonadecanoylamino)methyl]cyclohexanecarbonyl}amino)butyrylamino]-ethoxy}ethoxy)acetylamino]ethoxy}ethoxy)acetyl][Leu17,Lys26,Leu30]hPP2-36] (H-PLEPVYPGDNATPEQLAQYAADLRK([AEEA-AEEA-γGlu-Trx-C20 diacid])YINLLTRPRY-NH2; N-terminus and C-terminus assumed) | 7 nM | – | – | > 1000 nM | 58 h
4 | > 1000 nM | – | – | > 1000 nM | 93 h | CC[C@H](C)[C@H](NC(=O)[C@H](Cc1ccc(O)cc1)NC(=O)[C@H](CCCNC(=N)N)NC(=O)[C@H](CCCNC(=N)N)NC(=O)[C@H](CC(C)C)NC(=O)[C@H](CC(=O)O)NC(=O)[C@H](C)NC(=O)[C@H](C)NC(=O)[C@H](Cc1ccc(O)cc1)NC(=O)[C@H](CCC(N)=O)NC(=O)[C@H](C)NC(=O)[C@H](CC(C)C)NC(=O)[C@H](CCC(N)=O)NC(=O)[C@H](CCC(=O)O)NC(=O)[C@@H]1CCCN1C(=O)[C@@H](NC(=O)[C@H](C)NC(=O)[C@H](CC(N)=O)NC(=O)[C@H](CC(=O)O)NC(=O)CNC(=O)[C@@H]1CCCN1C(=O)[C@H](Cc1ccc(O)cc1)NC(=O)[C@@H](NC(=O)[C@@H]1CCCN1C(=O)[C@H](CCC(=O)O)NC(=O)[C@H](CC(C)C)NC(=O)[C@@H]1CCCN1)C(C)C)[C@@H](C)O)C(=O)N[C@@H](CC(N)=O)C(=O)N[C@@H](CC(C)C)C(=O)N[C@@H](CC(C)C)C(=O)N[C@H](C(=O)N[C@@H](CCCNC(=N)N)C(=O)N1CCC[C@H]1C(=O)N[C@@H](CCCCNC(=O)COCCOCCNC(=O)COCCOCCNC(=O)CC[C@H](NC(=O)[C@H]1CC[C@H](CNC(=O)CCCCCCCCCCCCCCCCCCC(=O)O)CC1)C(=O)O)C(=O)N[C@@H](Cc1ccc(O)cc1)C(N)=O)[C@@H](C)O [SEQ ID NO: 48, N-epsilon35-[2-(2-{2-[2-(2-{2-[(S)-4-Carboxy-4-({trans-4-[(19-carboxynonadecanoylamino)methyl]cyclohexanecarbonyl}amino)butyrylamino]-ethoxy}ethoxy)acetylamino]ethoxy}ethoxy)acetyl][Leu17,Leu30,Lys35]hPP2-36] (H-PLEPVYPGDNATPEQLAQYAADLRRYINLLTRPK([AEEA-AEEA-γGlu-Trx-C20 diacid])Y-NH2) | – | – | – | – | –
